Assay results reported in the supplement of paper PMC10307832.

Key:
Test in all cases: relative viability (nuclei count vs DMSO), 5 days (fraction); higher = more cells survive
HCC-78 = tested on: HCC-78
Outline: (§1)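 Relative viability divides the nuclei count in treated wells by that in vehicle wells. Lung cancer cell lines were seeded in 1536-well plates, dosed by pin tool the next day, and fixed and stained after 5 days in one step with final 0.05% Triton X-100, 1% formaldehyde and 1 ug/ml Hoechst. Dosing was a single drug or a fixed anchor-drug dose plus five library-drug doses (not always all listed) in √10 steps, and values are medians of duplicate plates imaged at 4×.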

UMC-11 = tested on: UMC-11
Outline: as §1

NCI-H727 = tested on: NCI-H727
Outline: as §1

LOU-NH91 = tested on: LOU-NH91
Outline: as §1

NCI-H838 = tested on: NCI-H838
Outline: as §1

NCI-H1666 = tested on: NCI-H1666
Outline: as §1

HCC-366 = tested on: HCC-366
Outline: as §1

NCI-H2228 = tested on: NCI-H2228
Outline: as §1

ABC-1 = tested on: ABC-1
Outline: as §1

201T = tested on: 201T
Outline: as §1

NCI-H1755 = tested on: NCI-H1755
Outline: as §1

Which relative viability (HCC-78; first compound 0.08 µM) does the source give for O=c1[nH]c2ccccc2n1C1CCN(CCCC(c2ccc(F)cc2)c2ccc(F)cc2)CC1 [Pimozide] + COc1cc2c(Oc3ccc(NC(=O)C4(C(=O)Nc5ccc(F)cc5)CC4)cc3F)ccnc2cc1OCCCN1CCOCC1 [Foretinib] (partner 0.25 µM) here?
The relative viability was 0.536.

And the relative viability (HCC-78; first compound 0.8 µM)?
The relative viability was 0.482.

What about the relative viability (HCC-78; first compound 2.53 µM) of the same compound?
Its relative viability is 0.564.

What about the relative viability (HCC-78; first compound 8 µM) of the same compound?
Its relative viability is 0.573.

What about the relative viability (UMC-11; first compound 0.08 µM) of the same compound?
Its relative viability is 1.05.

What about the relative viability (UMC-11; first compound 0.253 µM) of the same compound?
Its relative viability is 1.01.

And the relative viability (UMC-11; first compound 0.8 µM)?
The relative viability was 1.

What about the relative viability (UMC-11; first compound 2.53 µM) of the same compound?
Its relative viability is 1.14.

And the relative viability (UMC-11; first compound 8 µM)?
The relative viability was 1.07.

And the relative viability (NCI-H727; first compound 0.08 µM)?
The relative viability was 0.679.

And the relative viability (NCI-H727; first compound 0.253 µM)?
Its relative viability is 0.87.

What about the relative viability (NCI-H727; first compound 0.8 µM) of the same compound?
Its relative viability is 0.798.

What about the relative viability (NCI-H727; first compound 2.53 µM) of the same compound?
The relative viability was 0.722.

What about the relative viability (NCI-H727; first compound 8 µM) of the same compound?
The relative viability was 0.782.

And the relative viability (LOU-NH91; first compound 0.08 µM)?
The relative viability was 0.586.

What about the relative viability (LOU-NH91; first compound 0.253 µM) of the same compound?
The relative viability was 0.743.

What about the relative viability (LOU-NH91; first compound 0.8 µM) of the same compound?
The relative viability was 0.879.

And the relative viability (LOU-NH91; first compound 2.53 µM)?
The relative viability was 0.944.

And the relative viability (LOU-NH91; first compound 8 µM)?
Its relative viability is 0.888.

What about the relative viability (NCI-H838; first compound 0.08 µM) of the same compound?
Its relative viability is 1.02.

And the relative viability (NCI-H838; first compound 0.253 µM)?
Its relative viability is 1.11.

What about the relative viability (NCI-H838; first compound 0.8 µM) of the same compound?
Its relative viability is 1.08.

And the relative viability (NCI-H838; first compound 2.53 µM)?
Its relative viability is 1.03.

What about the relative viability (NCI-H838; first compound 8 µM) of the same compound?
Its relative viability is 1.04.

What about the relative viability (NCI-H1666; first compound 0.08 µM) of the same compound?
The relative viability was 0.952.

And the relative viability (NCI-H1666; first compound 0.253 µM)?
The relative viability was 0.939.

What about the relative viability (NCI-H1666; first compound 0.8 µM) of the same compound?
The relative viability was 0.941.

And the relative viability (NCI-H1666; first compound 2.53 µM)?
Its relative viability is 0.867.

What about the relative viability (NCI-H1666; first compound 8 µM) of the same compound?
Its relative viability is 0.857.

And the relative viability (HCC-366; first compound 0.08 µM)?
The relative viability was 0.862.

What about the relative viability (HCC-366; first compound 0.253 µM) of the same compound?
The relative viability was 0.952.

What about the relative viability (HCC-366; first compound 0.8 µM) of the same compound?
Its relative viability is 0.866.

And the relative viability (HCC-366; first compound 2.53 µM)?
Its relative viability is 0.925.

And the relative viability (HCC-366; first compound 8 µM)?
Its relative viability is 0.859.

What about the relative viability (NCI-H2228; first compound 0.08 µM) of the same compound?
The relative viability was 0.863.

And the relative viability (NCI-H2228; first compound 0.253 µM)?
The relative viability was 0.839.

And the relative viability (NCI-H2228; first compound 0.8 µM)?
Its relative viability is 0.574.

And the relative viability (NCI-H2228; first compound 2.53 µM)?
The relative viability was 0.831.

What about the relative viability (NCI-H2228; first compound 8 µM) of the same compound?
Its relative viability is 0.612.

What about the relative viability (ABC-1; first compound 0.08 µM) of the same compound?
Its relative viability is 1.11.

What about the relative viability (ABC-1; first compound 0.253 µM) of the same compound?
Its relative viability is 0.995.

What about the relative viability (ABC-1; first compound 0.8 µM) of the same compound?
Its relative viability is 0.723.

What about the relative viability (ABC-1; first compound 2.53 µM) of the same compound?
Its relative viability is 0.891.

What about the relative viability (ABC-1; first compound 8 µM) of the same compound?
Its relative viability is 0.767.

What about the relative viability (201T; first compound 0.08 µM) of the same compound?
Its relative viability is 1.08.

What about the relative viability (201T; first compound 0.253 µM) of the same compound?
Its relative viability is 1.06.

And the relative viability (201T; first compound 0.8 µM)?
The relative viability was 0.979.

What about the relative viability (201T; first compound 2.53 µM) of the same compound?
The relative viability was 1.02.

What about the relative viability (201T; first compound 8 µM) of the same compound?
The relative viability was 0.909.

And the relative viability (NCI-H1755; first compound 0.08 µM)?
The relative viability was 0.929.

And the relative viability (NCI-H1755; first compound 0.253 µM)?
Its relative viability is 0.928.

What about the relative viability (NCI-H1755; first compound 0.8 µM) of the same compound?
The relative viability was 0.874.

What about the relative viability (NCI-H1755; first compound 2.53 µM) of the same compound?
Its relative viability is 0.948.
